The text below walks through data of PMC7156724, “Potent BRD4 inhibitor suppresses cancer cell-macrophage interaction” (Nature Communications, 2020).

The structures appear in SMILES notation. “And” between values parts separate entries of the source, which are not always exact repeats. Equal values may be shown once.

For one test, the target named is T1, BRD4 (BD1+BD2) (Homo sapiens, UniProt O60885).
T1 construct: purchased BPS 32612
As to the kind of experiment: BRD4 (BD1+BD2) TR-FRET binding assay. The following applies: for Biochemical activity against BRD4 (BD1 + BD2): replicates; for IC50: average IC50, nM, read-out: IC50, biochemical activity against BRD4 (BD1 + BD2). From the text:
2. BRD4 binding assay. The inhibitory effects of NHWD-530, NHWD-540, NHWD- […]
(BPS, Cat # 32612) per manufacturer’s instructions. […]
On the technique in general: TR-FRET usually uses a lanthanide donor and a delayed reading to cut background.

The subject of test [1] is NCI-H211 small cell lung cancer (SCLC) cells. The experiment in a line: AlamarBlue assay, NCI-H211. The test is classed as cell-based. The following applies: for Cellular activity in SCLCs (H211), alamarBlue: Fig.1e, replicates; for IC50: Homo sapiens, NCI-H211, 72 h, 72 h treatment, nM, read-out: IC50, cellular activity in NCI-H211 (alamarBlue). The protocol:
(§1) 3. AlamarBlue assay. AlamarBlue was made by resazurin sodium salt (Sigma, Cat
(§2) # 199303) dissolved in PBS.
(§3) NCI-H211, MDA-MB231 and A375 cells were plated in 96-well plates at approximately 30% confluence and left overnight to adhere. In the following day, […]
(§4) of treatment, 10 μl AlamarBlue reagent (0.3 mg/ml) was added to each well, and after 18h, the florescence intensity in each well was measured using a top-reading fluorescent plate reader with excitation at 530 nm and emission at 590 nm. […]
A general note: Alamar Blue is a resazurin reagent that responds to reducing activity.

Test [2] has as its system MDA-MB231 triple negative breast cancer (TNBC) cells. As to the kind of experiment: AlamarBlue assay, MDA-MB231. It is filed as cell-based, human. The note with it: for Cellular activity in TNBCs (MDA-MB231), alamarBlue: Fig.1f, replicates; for IC50: Homo sapiens, MDA-MB-231, 72 h, 72 h treatment, nM, read-out: IC50, cellular activity in MDA-MB231 (alamarBlue). The protocol: as §1, §2, §3, §4

Where [3] appears, read: Fig.1b, concentration(nM) 0.0339849.
[4] abbreviates: Fig.1b, concentration(nM) 0.137272.
[5] abbreviates: Fig.1b, concentration(nM) 0.614394.
Setting [6] is: Fig.1b, concentration(nM) 1.09152.
Where [7] appears, read: Fig.1b, concentration(nM) 1.56864.
Setting [8] is: Fig.1b, concentration(nM) 2.04576.
Where [9] appears, read: Fig.1b, concentration(nM) 2.52288.
The mark [10] stands for this setting: Fig.1d, concentration(nM) 0.0021442.
[11] abbreviates: Fig.1d, concentration(nM) 0.061236.
[12] abbreviates: Fig.1d, concentration(nM) 0.103.
[13] abbreviates: Fig.1d, concentration(nM) 0.59176.
The mark [14] stands for this setting: Fig.1d, concentration(nM) 1.19382.
The mark [15] stands for this setting: Fig.1d, concentration(nM) 1.79588.
Where [16] appears, read: Fig.1d, concentration(nM) 2.39794.
The mark [17] stands for this setting: concentration column prints 2.52288.

Regarding `Cc1nnn(C)c1-c1cnc2c3cc4c(cc3n([C@H](c3ccccc3)C3CCOCC3)c2c1)C(=O)N(C)C4` [NHWD-530], the “Biochemical activity against BRD4 (BD1 + BD2)” value (from here on “Biochemical activity”) was 0.9223 and 6.575 on BRD4 (BD1+BD2) (setting [3]); 8.361 and 5.3853 on BRD4 (BD1+BD2) (setting [4]); 7.766 and 14.6266 at BRD4 (BD1+BD2) (setting [5]); 25.6174 and 20.5594 at BRD4 (BD1+BD2) (setting [6]); 58.197 on BRD4 (BD1+BD2) (setting [7]); 88.9914 and 87.355 at BRD4 (BD1+BD2) (setting [8]). Further, the “Biochemical activity” value was 96.1321 and 98.9586 on BRD4 (BD1+BD2) (setting [9]); 102.231 and 101.636 at BRD4 (BD1+BD2) (Fig.1b, concentration(nM) 3). Besides, the IC50 on BRD4 (BD1+BD2) is 28.5 nM.
Consider `Cc1nnn(C)c1-c1cnc2c3c4c(ccc3n([C@H](c3ccccc3)C3CCOCC3)c2c1)cnn4C` [NHWD-860], for which the “Biochemical activity” value on BRD4 (BD1+BD2) (setting [10]) is 1.269 and 4.138; at BRD4 (BD1+BD2) (setting [11]), 4.399 and 1.862; on BRD4 (BD1+BD2) (setting [12]) it was 3 and 0.4387; on BRD4 (BD1+BD2) (setting [13]), 12.3903 and 19.5044; at BRD4 (BD1+BD2) (setting [14]) it was 74.9941 and 70.1565; on BRD4 (BD1+BD2) (setting [15]) it was 100.036 and 99.751. Also, the “Biochemical activity” value at BRD4 (BD1+BD2) (setting [16]) was 101.174 and 100.605; on BRD4 (BD1+BD2) (Fig.1d, concentration(nM) 3) it was 100.889 and 100.32. The results for the half-inhibitory concentration (IC50) (on BRD4 (BD1+BD2); in test [1]; in test [2]) were 9.33 ± 0.97 nM, 8.06 ± 0.91 nM and 7.08 ± 0.85 nM, respectively. The “Cellular activity in SCLCs (H211), alamarBlue” value (“Cellular activity in SCLCs” for short) in test [1] (concentration 0.0169701) was 1.74 and 11.45; in test [1] (concentration 0.0398488), 4.56 and 9.08; in test [1] (concentration 0.137272), 4.2 and 14.84; in test [1] (concentration 0.614394), 15.53 and 29.79; in test [1] (concentration 1.09152), 68.35 and 72.54; in test [1] (concentration 1.56864) it was 88.44 and 89.49. In addition, the “Cellular activity in SCLCs” value was 90.64 and 90.52 in test [1] (concentration 2.04576); 89.32 and 90.99 in test [1] (concentration 3); 89.13 and 90.21 in test [1] (setting [17]). In addition, the “Cellular activity in TNBCs (MDA-MB231), alamarBlue” value (“Cellular activity in TNBCs” for short) is 14.34 and 13.82 in test [2] (concentration 0.15); 35.72 and 34.62 in test [2] (concentration 0.6); 67.92 and 71.9 in test [2] (concentration 1); 82.83 and 82.68 in test [2] (concentration 1.5); 87.1 and 88.94 in test [2] (concentration 2); 87.8 and 87.94 in test [2] (concentration 2.5). The “Cellular activity in TNBCs” value was 90.46 and 89.59 in test [2] (concentration 3); 5.89 and 8.33 in test [2] (concentration -0.3); 3.7 and 7.12 in test [2] (concentration -0.9).
As to `Cc1nnn(C)c1-c1cnc2c3c4ccn(C)c4ccc3n([C@H](c3ccccc3)C3CCOCC3)c2c1` [NHWD-830], the “Biochemical activity” value was 0.8628 and 1.4579 on BRD4 (BD1+BD2) (setting [3]); 6.575 and 2.559 at BRD4 (BD1+BD2) (setting [4]); 10.2946 and 5.683 on BRD4 (BD1+BD2) (setting [5]); 69.3038 and 62.4692 at BRD4 (BD1+BD2) (setting [6]); 79.3216 and 83.6358 on BRD4 (BD1+BD2) (setting [7]); 95.8346 and 94.942 at BRD4 (BD1+BD2) (setting [8]). Moreover, the “Biochemical activity” value is 100.744 and 99.5537 at BRD4 (BD1+BD2) (setting [9]); 101.346 and 101.785 at BRD4 (BD1+BD2) (Fig.1b, concentration(nM) 3). Also, the IC50 at BRD4 (BD1+BD2) is 10.2 nM.
On to `Cc1nnn(C)c1-c1cnc2c3cc4cnn(C)c4cc3n([C@H](c3ccccc3)C3CCOCC3)c2c1` [NHWD-850], for which the “Biochemical activity” value on BRD4 (BD1+BD2) (setting [10]) is 0.1541 and 1.269; at BRD4 (BD1+BD2) (setting [11]), 12.3903 and 11.5366; on BRD4 (BD1+BD2) (setting [12]), 4.399 and 8.952; at BRD4 (BD1+BD2) (setting [13]) it was 7.837 and 3; on BRD4 (BD1+BD2) (setting [14]), 31.456 and 32.5943; on BRD4 (BD1+BD2) (setting [15]), 96.9054 and 95.198. Further, the “Biochemical activity” value at BRD4 (BD1+BD2) (setting [16]) was 100.036 and 100.889; on BRD4 (BD1+BD2) (Fig.1d, concentration(nM) 3) it was 99.751 and 100.889. In addition, the IC50 at BRD4 (BD1+BD2) was 20.6 ± 1.31 nM; in test [1] it was 16 ± 1.21 nM; in test [2], 14.5 ± 1.16 nM. For the same compound, the “Cellular activity in SCLCs” value in test [1] (concentration 0.0169701) is 0.35 and 1.87; in test [1] (concentration 0.0398488), 0.32 and 1.84; in test [1] (concentration 0.137272) it was 0.23 and -0.84; in test [1] (concentration 0.614394), 7.16 and 14.38; in test [1] (concentration 1.09152) it was 35.94 and 34.48; in test [1] (concentration 1.56864), 89.1 and 88.35. For the same compound, the “Cellular activity in SCLCs” value in test [1] (concentration 2.04576) is 90.09; in test [1] (concentration 3), 89.78 and 89.22; in test [1] (setting [17]), 89.03 and 89.34. Besides, the “Cellular activity in TNBCs” value is 15.75 and 17.7 in test [2] (concentration 0.15); 25.28 and 23.6 in test [2] (concentration 0.6); 46.11 and 48.16 in test [2] (concentration 1); 71.17 and 69.3 in test [2] (concentration 1.5); 82.44 and 82.62 in test [2] (concentration 2); 86.67 and 86.03 in test [2] (concentration 2.5). Besides, the “Cellular activity in TNBCs” value is 88.63 and 88.4 in test [2] (concentration 3); 7.16 and 12.83 in test [2] (concentration -0.3); 4.44 and 11.66 in test [2] (concentration -0.9).
As for `Cc1nnn(C)c1-c1cnc2c3cc4c(cc3n([C@H](c3ccccc3)C3CCOCC3)c2c1)CN(C)C4=O` [NHWD-540], the “Biochemical activity” value is 5.534 and 1.544 on BRD4 (BD1+BD2) (setting [3]); 6.278 and 5.237 on BRD4 (BD1+BD2) (setting [4]); 11.7822 and 11.931 at BRD4 (BD1+BD2) (setting [5]); 36.626 and 29.039 on BRD4 (BD1+BD2) (setting [6]); 74.1149 and 79.0241 on BRD4 (BD1+BD2) (setting [7]); 94.7932 and 97.1735 at BRD4 (BD1+BD2) (setting [8]). For the same compound, the “Biochemical activity” value was 100.446 and 100.744 on BRD4 (BD1+BD2) (setting [9]); 101.488 and 101.636 at BRD4 (BD1+BD2) (Fig.1b, concentration(nM) 3). The half-maximal inhibitory concentration (IC50) on BRD4 (BD1+BD2) came out at 18.1 nM.
For the compound `Cc1nnn(C)c1-c1cnc2c3c4c(ccc3n([C@H](c3ccccc3)C3CCOCC3)c2c1)C(=O)N(C)C4` [NHWD-560], the “Biochemical activity” value was 10.1562 and 13.125 on BRD4 (BD1+BD2) (setting [3]); 5 and 10.625 at BRD4 (BD1+BD2) (setting [4]); 14.5312 and 15.4688 on BRD4 (BD1+BD2) (setting [5]); 33.5938 and 32.5 at BRD4 (BD1+BD2) (setting [6]); 66.25 and 68.125 on BRD4 (BD1+BD2) (setting [7]); 95.625 and 95 on BRD4 (BD1+BD2) (setting [8]). Moreover, the “Biochemical activity” value at BRD4 (BD1+BD2) (setting [9]) was 101.719; at BRD4 (BD1+BD2) (Fig.1b, concentration(nM) 3), 102.344 and 102.5. The IC50 at BRD4 (BD1+BD2) worked out at 19.5 nM.

Usually IC50 stands for the point on the concentration scale where inhibition reaches its midpoint.
